Assay results taken from patent publication US10508113B2, “Inhibitors of tyrosine kinase 2 mediated signaling” (AbbVie Inc., priority 2018, dated 2019).

Tests used:
Type in all cases: cell-based
[1] = molecular target: T1, Tyk2/Jak2 (Homo sapiens, UniProt P29597); experiment: Tyk2 (Tyk2/Jak2 PSTAT4 T-Blast) alpha screen assay: inhibition of IL-12 induced phosphorylation of STAT4 in T-blast cells; conditions: IL-12 induced pSTAT4, T-blast cells
T1 construct: Cell Type: Frozen primary phytohemagglutinin (PHA) T-Blasts; endogenous in cells; host or cells: primary PHA T-blasts
Description: 1. TYK2 (TYK2/JAK2 PSTAT4 T-BLAST) ALPHA SCREEN ASSAY
IL-12 is known to transduce its signal through IL-12 receptor via Jak2 and/or Tyk2. For that reason, the activity against Tyk2/Jak2 was measured by determining the inhibition of IL-12 induced phosphorylation of STAT4 in T-blast cells. […] See, e.g., Sohn et al., J. Immunology (2013) 2205-2216.
Cell Type: Frozen primary phytohemagglutinin (PHA) T-Blasts; Culture Medium: Roswell Park Memorial Institute (RPMI) 1640 Medium, 10% heat-inactivated fetal bovine serum (FBS), 1% penicillin/streptomycin (Pen-Strep), 10 mM hydroxyethyl piperazineethanesulfonic acid (HEPES), 10 ng/mL recombinant human interleukin-12 (rhIL-12); Assay Medium: Hank's Balanced Salt Solution (HBSS), no phenol red.
i. Automated 11-point 1:3 dilution curve: 2.5 mM top concentration dispensed in column 1 of a Corning 96-well polypropylene plate. Dimethyl sulfoxide (DMSO) was added to column 12 for high and low controls. Compounds were serially diluted 1:3 by adding 20 uL stock to 40 μL DMSO across the plate via Hamilton Microlab Star instrument.
ii. Media dilution of compounds: Serially diluted compounds were diluted 1:50 in assay medium by adding 4 μL compound to 196 μL assay medium in a Corning 96-well polypropylene plate (now 2% DMSO).
iii. […]
Primary T-Blasts from overnight culture were centrifuged, washed once in assay medium, and pelleted. T-Blasts were counted and resuspended at 12,500,000 cells/mL. […]
Phosphorylated Signal Transducer and Activator of Transcription 4 (pSTAT4) was quantified using the PerkinElmer SureFire Ultra pSTAT4 (Tyrosine 693) Assay. […]
Make master mix of Protein A donor beads using the following volumes per well: 5.88 μL Dilution Buffer and 0.12 μL […]. […] Read plate on Perkin Elmer Envision. […]
Certain compounds listed in Table C were tested for Tyk2 activity following the aforementioned Tyk2 (Tyk2/Jak2 PSTAT4 T-Blast) alpha screen assay and Jak2 (PTATS UT7) alpha screen assay. […] Selectivity for Tyk2 over Jak1, and Tyk2 over Jak2, are calculated from the tabulated activity data.

[2] = molecular target: T2, Jak1 (Homo sapiens, UniProt P23458); experiment: Jak1 (PSTAT3 TF1) alpha screen assay: inhibition of IL-6 induced phosphorylation of STAT3 in TF1 cells; conditions: calculated from tabulated EC50 data (Jak1 / Tyk2)
T2 construct: endogenous in cells; host or cells: TF1 cells
How it was run: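 IL-6-starved TF1 cells were preincubated 30 min at 37 °C with compound (top final 25 μM, 8-point 1:5 series), then stimulated with IL-6 (100 ng/mL final) for 30 min at 37 °C. Lysates were read for pSTAT3 (Tyr705) by AlphaScreen SureFire. EC50 from percent-activity dose-response curves.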

[3] = molecular target: T3, Jak2 (Homo sapiens, UniProt O60674); experiment: Jak2 (PSTATS UT7) alpha screen assay: inhibition of EPO induced phosphorylation of STAT5 in UT7 cells; conditions: calculated from tabulated EC50 data (Jak2 / Tyk2)
T3 construct: Cell Type: UT7 cells engineered to express the erythropoietin (EPO) receptor; endogenous in cells; host or cells: UT7 cells engineered to express the EPO receptor
How it was run: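 EPO-receptor-expressing UT7 cells, starved overnight of EPO, preincubated 30 min at 37 °C with compound (8-point 1:3, top 25 µM final), then stimulated with 1 nM EPO for 20 min. After lysis, pSTAT5 (Tyr694/699) measured by SureFire AlphaScreen; EC50 from dose-response of percent activity.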

T2 sequence (P23458 whole entry): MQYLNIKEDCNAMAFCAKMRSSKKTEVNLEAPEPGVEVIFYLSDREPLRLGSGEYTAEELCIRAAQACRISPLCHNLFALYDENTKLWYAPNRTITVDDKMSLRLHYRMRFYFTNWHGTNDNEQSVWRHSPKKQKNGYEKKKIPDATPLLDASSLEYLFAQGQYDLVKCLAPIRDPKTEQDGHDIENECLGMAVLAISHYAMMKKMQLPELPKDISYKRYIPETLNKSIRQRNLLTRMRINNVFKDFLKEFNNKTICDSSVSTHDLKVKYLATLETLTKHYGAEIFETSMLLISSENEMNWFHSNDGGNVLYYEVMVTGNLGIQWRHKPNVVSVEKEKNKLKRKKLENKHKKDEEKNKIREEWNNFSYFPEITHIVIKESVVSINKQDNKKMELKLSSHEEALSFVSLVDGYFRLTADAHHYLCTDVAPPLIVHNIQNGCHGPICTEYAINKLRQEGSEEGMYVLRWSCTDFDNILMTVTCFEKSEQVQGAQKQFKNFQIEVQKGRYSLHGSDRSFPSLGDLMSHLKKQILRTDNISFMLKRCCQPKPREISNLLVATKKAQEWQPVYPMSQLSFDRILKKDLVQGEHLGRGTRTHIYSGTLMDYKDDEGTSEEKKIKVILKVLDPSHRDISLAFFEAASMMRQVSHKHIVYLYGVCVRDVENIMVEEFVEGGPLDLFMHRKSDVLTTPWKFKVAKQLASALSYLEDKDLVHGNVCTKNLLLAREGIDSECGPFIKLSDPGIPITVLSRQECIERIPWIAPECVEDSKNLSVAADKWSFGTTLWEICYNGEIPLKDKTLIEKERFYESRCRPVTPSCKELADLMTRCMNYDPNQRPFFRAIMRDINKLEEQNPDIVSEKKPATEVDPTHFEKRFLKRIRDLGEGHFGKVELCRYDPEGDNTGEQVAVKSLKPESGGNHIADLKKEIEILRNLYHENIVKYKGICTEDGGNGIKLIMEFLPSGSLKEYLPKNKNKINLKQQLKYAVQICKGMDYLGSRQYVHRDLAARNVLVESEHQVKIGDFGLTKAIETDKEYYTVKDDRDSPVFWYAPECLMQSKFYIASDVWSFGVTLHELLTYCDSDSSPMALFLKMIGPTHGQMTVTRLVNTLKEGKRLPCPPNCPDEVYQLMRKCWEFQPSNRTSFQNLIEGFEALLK
T1 sequence (P29597 whole entry, other chains not shown): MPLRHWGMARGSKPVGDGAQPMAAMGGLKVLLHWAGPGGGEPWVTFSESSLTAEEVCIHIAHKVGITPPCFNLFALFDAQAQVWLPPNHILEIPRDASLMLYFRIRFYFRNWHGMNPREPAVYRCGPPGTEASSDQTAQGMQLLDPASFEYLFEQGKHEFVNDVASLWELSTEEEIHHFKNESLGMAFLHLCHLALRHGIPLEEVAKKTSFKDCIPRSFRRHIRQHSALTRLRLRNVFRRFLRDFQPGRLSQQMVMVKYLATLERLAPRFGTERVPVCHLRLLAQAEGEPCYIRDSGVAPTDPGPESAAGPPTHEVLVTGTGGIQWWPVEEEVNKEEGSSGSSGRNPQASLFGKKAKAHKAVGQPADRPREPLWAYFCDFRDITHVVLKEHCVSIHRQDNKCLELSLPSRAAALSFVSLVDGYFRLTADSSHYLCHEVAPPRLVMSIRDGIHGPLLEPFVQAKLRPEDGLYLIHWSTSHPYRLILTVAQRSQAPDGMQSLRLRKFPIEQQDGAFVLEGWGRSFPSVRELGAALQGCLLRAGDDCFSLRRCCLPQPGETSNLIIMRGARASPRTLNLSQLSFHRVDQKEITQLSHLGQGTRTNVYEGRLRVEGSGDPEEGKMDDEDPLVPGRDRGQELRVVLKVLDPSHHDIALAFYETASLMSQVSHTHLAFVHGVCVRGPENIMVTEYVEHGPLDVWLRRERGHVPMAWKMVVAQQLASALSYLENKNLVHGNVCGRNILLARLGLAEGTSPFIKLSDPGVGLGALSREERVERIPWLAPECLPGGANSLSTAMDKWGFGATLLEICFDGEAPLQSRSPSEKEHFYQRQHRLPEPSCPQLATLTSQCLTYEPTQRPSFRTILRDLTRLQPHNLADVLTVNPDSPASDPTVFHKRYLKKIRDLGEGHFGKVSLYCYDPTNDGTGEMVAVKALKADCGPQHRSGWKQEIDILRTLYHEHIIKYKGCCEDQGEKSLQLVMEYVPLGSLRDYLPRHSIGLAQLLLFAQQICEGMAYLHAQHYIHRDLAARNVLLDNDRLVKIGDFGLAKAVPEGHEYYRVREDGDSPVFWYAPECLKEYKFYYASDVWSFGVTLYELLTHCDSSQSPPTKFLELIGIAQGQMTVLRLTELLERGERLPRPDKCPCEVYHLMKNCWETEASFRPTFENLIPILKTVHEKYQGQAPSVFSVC
T3 sequence (O60674 whole entry): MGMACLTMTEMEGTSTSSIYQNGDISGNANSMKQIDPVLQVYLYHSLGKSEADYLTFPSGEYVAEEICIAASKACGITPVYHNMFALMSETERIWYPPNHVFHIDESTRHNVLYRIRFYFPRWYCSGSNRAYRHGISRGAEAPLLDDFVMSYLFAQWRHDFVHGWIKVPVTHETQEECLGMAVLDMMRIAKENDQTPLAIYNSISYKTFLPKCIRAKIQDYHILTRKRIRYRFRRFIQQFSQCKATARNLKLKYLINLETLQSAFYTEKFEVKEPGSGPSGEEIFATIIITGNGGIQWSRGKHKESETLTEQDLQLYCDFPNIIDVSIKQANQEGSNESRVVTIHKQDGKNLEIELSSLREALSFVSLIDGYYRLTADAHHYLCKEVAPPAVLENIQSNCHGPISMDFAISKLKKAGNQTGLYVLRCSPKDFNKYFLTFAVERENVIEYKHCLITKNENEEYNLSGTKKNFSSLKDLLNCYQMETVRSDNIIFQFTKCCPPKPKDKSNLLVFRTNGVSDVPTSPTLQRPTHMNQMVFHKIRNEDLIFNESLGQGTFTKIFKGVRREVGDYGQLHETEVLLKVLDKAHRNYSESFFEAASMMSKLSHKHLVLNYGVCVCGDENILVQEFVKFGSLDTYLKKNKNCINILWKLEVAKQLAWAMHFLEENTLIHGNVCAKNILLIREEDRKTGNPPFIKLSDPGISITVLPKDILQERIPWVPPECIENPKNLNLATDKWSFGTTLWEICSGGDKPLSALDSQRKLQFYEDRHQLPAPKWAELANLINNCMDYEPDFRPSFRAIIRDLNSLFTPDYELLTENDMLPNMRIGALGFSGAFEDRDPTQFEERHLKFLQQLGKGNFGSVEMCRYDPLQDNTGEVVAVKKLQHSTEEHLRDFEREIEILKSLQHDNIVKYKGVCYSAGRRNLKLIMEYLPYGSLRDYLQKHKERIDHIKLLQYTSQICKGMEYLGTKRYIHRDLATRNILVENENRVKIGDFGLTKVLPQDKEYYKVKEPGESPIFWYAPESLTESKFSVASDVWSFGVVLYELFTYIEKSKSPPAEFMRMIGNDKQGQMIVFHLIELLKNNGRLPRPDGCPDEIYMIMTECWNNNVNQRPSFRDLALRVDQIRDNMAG

| EC50 [1] [nM] | Tyk2 selectivity over Jak1 [2] | Tyk2 selectivity over Jak2 [3] | SMILES |
| --- | --- | --- | --- |
| 540 |  |  | CC(=O)Nc1cc2c(-c3cccc([C@@]4(CO)CCOC4)n3)c[nH]c2cn1 [21-NH (R-isomer)] |
|  | 22-fold | >128-fold | Cn1cc(-c2cncc([C@@]3(C)CCOC3)n2)c2cc(NC(N)=O)ncc21 [Example 1b.6, (R)-1-(1-methyl-3-(6-(3-methyltetrahydrofuran-3-yl)pyrazin-2-yl)-1H-pyrrolo[2,3-c]pyridin-5-yl)urea] |
